From PubChem BioAssay AID1918996 (Molecular Pharmacology Branch, DTP, NCI, 2023) come the findings set out here.

The experiment relates to 349418-098-R-PDC complex spheroid growth. Kind of experiment: Anticancer human tumor 349418-098-R-PDC patient-derived lung adenocarcinoma cell line growth inhibition [AhR]. The settings on record: for viability, T/C: stronger effect = lower value; for pIC50: curve of compound. The text has this: Multicellular complex tumor spheroid response to aryl hydrocarbon receptor antagonists in combination with a variety of drugs and investigational agents in selected tumor cell lines
The current study was undertaken to assess response to aryl hydrocarbon receptor antagonists in combination with standard-of-care drugs and investigational agents in solid tumor complex spheroid models. Complex spheroids include a stromal component modeled by human endothelial cells (HUVEC) and fibroblasts modeled by human mesenchymal stem cells (MSCs). The concentration ranges selected for each drug and investigational agent were based upon clinically achievable concentrations if the clinical Cmax of the agent was known.
Compounds. The drugs and investigational agents: BAY 2416964 (NSC825713), GNF351 (NSC835774), CH-223191 (NSC835775), CPI-455 (NSC825282), aza-TdCyd (NSC777586), decitabine (NSC127716), belinostat (NSC758774), entinostat (NSC756642), pevonedistat (NSC761192), tazemetostat (NSC777109), talazoparib (NSC765396), olaparib (NSC753686), selinexor (NSC780203), nedisertib (M3814, NSC802822), bortezomib (NSC756655), venetoclax (NSC766270), doxorubicin (NSC123127), elimusertib (BAY189344, NSC800525), ceralasertib (AZD6738, NSC777638), TAK-243 (NSC785004), alisertib (NSC759677), etoposide (NSC141540), topotecan (NSC609699), eribulin (NSC707389), gemcitabine (NSC613327), carboplatin (NSC241240), cisplatin (NSC119875), and SN-38 (NSC673596) were obtained from the National Cancer Institute (NCI) Developmental Therapeutics Program Chemical Repository (32). The FDA-approved anticancer drug set is available from the Developmental Therapeutics Program at https://dtp.cancer.gov/organization/dscb/obtaining/available plates.htm. […] The stock solutions were prepared in dimethyl sulfoxide (DMSO, Sigma-Aldrich, St. Louis, MO, cat. D2650), except for the platinum compounds which were prepared in saline (Quality Biological, Gaithersburg, MD, cat. 114-055-101), at 800-fold the tested concentration and stored at -70 degrees C prior to their use. All drugs and investigational agents were tested over a range starting from a high concentration at or near the clinical Cmax and decreasing in half-log increments. If the clinical Cmax for an agent had not been determined, the highest concentration tested was 10 microM (Table 1).
Cell Culture. All cells were maintained in an incubator at 37 degrees C and 5% CO2 with 95% humidity. The PDC lines were cultured according to standard operating procedures established by the NCI PDMR (https://pdmr.cancer.gov). Briefly, all PDCs were thawed and cultured in Matrigel-coated flasks prepared with a working solution of 1X Ham's F-12 nutrient mix, without supplementation (Invitrogen, Waltham, MA, cat. 11765054), 100 U/mL penicillin-streptomycin (Invitrogen, cat. 15140122), and 2.5% Matrigel (Corning Inc., Corning, NY, cat. 354248) for the first three passages. All PDCs were cultured in complete DMEM/F-12 media containing advanced DMEM/F-12 (Invitrogen, cat. 12634028), 4.9% defined fetal bovine serum, heat inactivated (HyClone Laboratories Inc., Logan, UT, cat. SH30070.03HI), 389 ng/mL hydrocortisone (Sigma-Aldrich, cat. H4001), 9.7 ng/mL human EGF recombinant protein (Invitrogen, cat. PHG0313), 23.4 microg/mL adenine (Sigma-Aldrich, cat. A2786), 97.3 U/mL penicillin-streptomycin (Invitrogen, cat. 15140122), 1.9 mM L-glutamine (Invitrogen, cat. 25030081), and 9.7 microM Y-27632 dihydrochloride (Tocris Bioscience, Bristol, United Kingdom, cat. 1254). The PDCs were cultured in complete DMEM/F12 media without 10 microM Y-27632 dihydrochloride for at least two passages prior to the screen. The established cell lines NCI-H1341 and […] were cultured in DMEM/F-12, HEPES (Invitrogen, cat. 11330032), 5% defined fetal bovine serum (HyClone Laboratories Inc., cat. SH30070.03), ITS premix universal culture supplement [insulin (5 microg/mL), transferrin (5 microg/mL), and selenious acid (5 ng/mL)] […]

pIC50: −log10 of the molar value. Several values for one entry are separate records, joined by “and”; a condition that tells them apart may be missing. Equal values may be shown once.
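Further: spheroids exposed to agents for seven days before luminescence viability read.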
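Wherever viability, T/C is given: spheroids also contain HUVEC endothelial cells and human MSC stroma.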

By viability, T/C is commonly meant the result in the treated group divided by that in the control group, in per cent. The pIC50 is the negative decadic logarithm of the IC50, by convention in mol/L. On to `Cn1ncnc1C1c2n[nH]c(=O)c3cc(F)cc(c23)NC1c1ccc(F)cc1` (stereo not drawn), for which the pIC50 was less than 7.00. Also, for the setting “compound 0.000316 µM”, the viability, T/C was 100% and 74.1% and 70.2%. Further, where the note is “compound 0.001 µM”, the viability, T/C is 102% and 101% and 105%. Further, the viability, T/C (compound 0.00316 µM) is 99.4% and 111% and 92.2%. Moreover, the viability, T/C (compound 0.01 µM) is 93.1% and 74.3% and 87%. Besides, where the note is “compound 0.0316 µM”, the viability, T/C was 87.6% and 97.2% and 84.1%. Further, the viability, T/C (compound 0.1 µM) was 90.1% and 98.5% and 63.7%.
As to `NS(=O)(=O)OCC1CC(n2ccc3c(NC4CCc5ccccc54)ncnc32)CC1O` (stereo not drawn), the pIC50 is 6.24 and 6.64 and 6.70. Besides, the viability, T/C (compound 0.0316 µM) is 94% and 96.6% and 72.3%. Further, the viability, T/C (compound 0.1 µM) is 96.1% and 79.4% and 73.2%. For the same molecule, the viability, T/C (compound 0.316 µM) was 72.6% and 35.4% and 34.8%. Further, for the setting “compound 1 µM”, the viability, T/C is 27.8% and 25.5% and 21.3%. The viability, T/C (compound 3.16 µM) is 15.2% and 12.5% and 14%. In addition, the viability, T/C (compound 10 µM) is 6.38% and 8.08% and 8.54%.
For the molecule `Nc1ccccc1NC(=O)c1ccc(CNC(=O)OCc2cccnc2)cc1`, the negative-log IC50 (pIC50) was 6.07 and 5.84 and 6.03. The viability, T/C (compound 0.0316 µM) is 86.3% and 118% and 87.5%. Besides, the viability, T/C (compound 0.1 µM) was 77.6% and 98.4% and 82.2%. The viability, T/C (compound 0.316 µM) is 65.7% and 89.3% and 84.6%. Besides, the viability, T/C (compound 1 µM) is 48.9% and 69.2% and 44.6%. The viability, T/C (compound 3.16 µM) was 23.7% and 17.8% and 23.1%. Besides, the viability, T/C (compound 10 µM) was 5.19% and 7.03% and 7.04%.
Turning to `Nc1ccn(C2OC(CO)C(O)C2(F)F)c(=O)n1` (stereo not drawn), the pIC50 was greater than 7.50. Where the note is “compound 0.0316 µM”, the viability, T/C was 4.83% and 12.5% and 13.7%. The viability, T/C (compound 0.1 µM) is 4.18% and 11.3% and 11.8%. Also, where the note is “compound 0.316 µM”, the viability, T/C is 4.06% and 10.1% and 12.9%. Also, the viability, T/C (compound 1 µM) is 5.57% and 9.29% and 10.5%. In addition, under “compound 3.16 µM”, the viability, T/C is 4.07% and 9.38% and 10.2%. The viability, T/C (compound 10 µM) was 3.24% and 7.8% and 8.55%.
Regarding `Nc1ncn(C2CC(O)C(CO)O2)c(=O)n1` (stereo not drawn), the negative-log IC50 (pIC50) is 6.69 and 7.27 and 7.49. Moreover, the viability, T/C (compound 0.00316 µM) was 105% and 99.7% and 103%. For the same molecule, the viability, T/C (compound 0.01 µM) is 103% (2×) and 68.3%. In addition, the viability, T/C (compound 0.0316 µM) was 80% and 57.7% and 46.6%. In addition, the viability, T/C (compound 0.1 µM) is 67% and 49.8% and 46.6%. Under “compound 0.316 µM”, the viability, T/C is 38.9% and 42.3% and 32.5%. Moreover, the viability, T/C (compound 1 µM) was 32.3% and 31.3% and 26.1%.
`Nc1ncn(C2CC(O)C(CO)S2)c(=O)n1` (stereo not drawn): the pIC50 is 7.03 and 6.92 and 6.95. Moreover, the viability, T/C (compound 0.000949 µM) is 97.2% and 92.9% and 82.7%. Moreover, the viability, T/C (compound 0.003 µM) was 99.2% and 94.3% and 81.9%. The viability, T/C (compound 0.00949 µM) is 96.8% and 87.4% and 85.6%. Besides, for the setting “compound 0.03 µM”, the viability, T/C is 73.7% and 78.3% and 64.3%. Besides, the viability, T/C (compound 0.0949 µM) is 51.7% and 54.9% and 55.8%. The viability, T/C (compound 0.3 µM) is 29% and 31.2% and 26.1%.
Take `O=C(C=Cc1cccc(S(=O)(=O)Nc2ccccc2)c1)NO`: the negative logarithm of the IC50 (pIC50) is 6.14 and 6.18. For the same molecule, the viability, T/C (compound 0.0316 µM) is 81.9% and 112% and 124%. For the same molecule, for the setting “compound 0.1 µM”, the viability, T/C is 83.5% and 128% and 78%. Further, for the setting “compound 0.316 µM”, the viability, T/C was 60.7% and 73.3% and 78.8%. Also, the viability, T/C (compound 1 µM) is 48.6% and 42.6% and 41.5%. Under “compound 3.16 µM”, the viability, T/C was 13.1% and 11.2% and 10.6%. Under “compound 10 µM”, the viability, T/C is 2.17% and 1.85% and 2.27%.
As to `O=C(C=Cn1cnc(-c2cc(C(F)(F)F)cc(C(F)(F)F)c2)n1)NNc1cnccn1`, the pIC50 was 7.30 and 7.68 and 7.62. The viability, T/C (compound 0.00949 µM) is 101% and 61.6% and 69.8%. The viability, T/C (compound 0.03 µM) was 59.3% and 45% and 45.2%. Further, for the setting “compound 0.0949 µM”, the viability, T/C is 40.3% and 14.9% and 16.5%. Moreover, the viability, T/C (compound 0.3 µM) was 12.2% and 12.3% and 7.91%. Moreover, the viability, T/C (compound 0.949 µM) is 6.89% and 8.37% and 7.72%. In addition, the viability, T/C (compound 3 µM) is 4.34% and 6.5% and 7.38%.
For `O=C(c1cc(Cc2n[nH]c(=O)c3ccccc23)ccc1F)N1CCN(C(=O)C2CC2)CC1`, the pIC50 is < 5.00 and 5.44 and 5.25. In addition, under “compound 0.0316 µM”, the viability, T/C is 99.3% and 78.6% and 91.4%. The viability, T/C (compound 0.1 µM) was 96.3% and 102% and 76.1%. For the same molecule, the viability, T/C (compound 0.316 µM) is 102% and 59% and 78.5%. In addition, the viability, T/C (compound 1 µM) is 92.2% and 95.7% and 68.9%. Moreover, for the setting “compound 3.16 µM”, the viability, T/C is 92.4% and 52.9% and 67.8%. Further, under “compound 10 µM”, the viability, T/C is 64.2% and 30% and 36.2%.
